Entries after “also recorded” stand apart in the source; their conditions may differ.
What was measured:
[1] = test system: PMA stimulated THP1 cells; test: Inhibition of lipoprotein (Cy3-oxLDL) uptake / lipid vesicle accumulation in macrophage foam cells; assay type: cell-based; conditions: PMA-differentiated THP1 cells, 2 hours with cy3 labeled oxLDL (1 µg/ml), fluorescence microscopy
Experimental: The THP-1 cell line from the European Collection of Cell Cultures, (ECACC, Wilshire, UK) were selected to generate a cellular model that mimics the differentiation and the growth of a foam cell. Typically, the cells (5.10^5 cells/ml) were maintained and grown in RPMI-1640, 10% FBS, 100 Unit/ml penicillin and 100 µg/ml streptomycin, […] L-Glutamine (Biowhittaker, Verviers , Belgium) in 37°C, 5% CO2 incubator. Medium was replaced every 2-3 days.
Human LDL were isolated from fresh plasma using a two steps KBr gradient ultracentrifugation (Leger et al., Free Rad. Res., 2002, 36, 127-142), LDL were dialyzed against NaCl 150 mM, sodium phosphate 10 mM, DTPA 10 µM (pH 7,4) for 24 hours. […]
Finally, lipoproteins were also characterized by their electrophoretic mobility. […] At the end of the labeling procedure, Cy3-OxLDL was extensively dialyzed and labeling efficiency was evaluated by measuring the absorbance at 548 nm.
To induce differentiation into macrophages, 1.5 10^5 cells/wells were plated in 96-well plates in culture medium supplemented with 10^-7 M of phorbol 12-myristate-13-acetate (Sigma) for 24 hours at 37°C, 5% CO2. […] After 2 washes with PBS, images of Cy-3 oxLDL uptake were captured using a fluorescence microscope coupled with a CCD camera. Each image was analyzed and quantified using QFluoro Software (Leica).

thromboxane A2 = conditions: described in EP 0 623 019; cited from earlier work

**Q.** For `CC/C=C\C/C=C\C/C=C\C/C=C\C/C=C\C/C=C\CCC(=O)O[C@H](CO)COP(=O)([O-])OCC[N+](C)(C)C` [lyso-PCDHA, 1-lyso, 2-DHA-glycero-phosphocholine], which “accumulation of lipid vesicles in macrophage / formation of foam cells” value [1] is on record?
**A.** can block the accumulation of lipid rich vesicles in macrophage and prevent the formation of foam cell; also recorded: Dose dependent effect for the inhibition of lipid vesicles in macrophage cells; also recorded: can inhibit the accumulation of lipid vesicles in macrophage and block the formation of foam cells

**Q.** What about the platelet aggregation inhibition (thromboxane A2) of the same molecule?
**A.** platelet aggregation inhibitors

Reference: patent EP1466597A1, “Use of dha esters to control or prevent cardiovascular diseases” (Clinigenetics, priority 2003, dated 2004)
